{
  "source": "patent USRE44962E1",
  "about": "“Genetically engineered plant cells and plants exhibiting resistance to glutamine synthetase inhibitors, DNA fragments and recombinants for use in the production of said cells and plants” (Bayer Cropscience N.V., priority 1986, dated 2014)",
  "test_system": "S. lividans",
  "format": "cell-based",
  "conditions": "relative to S. lividans without the plasmid",
  "data": [
    {"smiles": "CC(NC(=O)C(C)NC(=O)C(N)CCP(C)(=O)O)C(=O)O", "note": "(stereo not shown) [Bialaphos]", "values": [
      {"measurement": "resistance to Bialaphos of S. lividans strains containing pBG20", "result": "more than 500 times"}
    ]}
  ]
}
